Drawing on patent US11447503B2, “Pyridine carbamates and their use as GLUN2B receptor modulators” (JANSSEN PHARMACEUTICA NV, priority 2019, dated 2022), this text covers IC50 for 27 molecules.

Usually IC50 stands for the concentration at which inhibition is half-maximal.

For this experiment, the target named is human GluN1/GluN2B NMDA receptors (Homo sapiens, UniProt Q05586+Q13224). The experiment can be described thus: Cell-based calcium flux (FLIPR) assay on cloned human GluN1/GluN2B ion channels expressed in mammalian cells. The note with it: standard assay; glutamate ~EC40, 10 μM glycine; stable Tet-On cell line. As to the method:
5.3. Biological Assays: Effect of Compounds of Formula (I) on Cloned Human GluN1/GluN2B Ion Channels Expressed in Mammalian Cells
NMDA receptors are ion channels that are highly permeable to Ca^2+ ions, rendering it possible to monitor NMDA receptor function using cell-based calcium flux assay. In this assay, co-agonists glutamate and glycine are added to cells heterologously expressing human GluN1/GluN2B NMDA receptors to initiate cellular Ca^2+ influx. The time course of the changes in intracellular calcium is measured using a fluorescent dye and a FLIPR (Fluorometric Imaging Plate Reader) device.
Twenty four hours before measurements, the expression of the NMDA receptors in the stable cell line is induced with Tet-On inducible system in the presence of a non-selective NMDA receptor blocker. On the day of the experiment, cell culture media is carefully washed and the cells are loaded with Calcium 5 Dye Kit (Molecular Devices) in dye loading buffer containing 137 mM NaCl, 4 mM KCl, 2 mM CaCl2, 0.5 mM MgCl2 (standard assay) or 1.5 mM MgCl2 (HTS assay), 10 mM HEPES and 5 mM D-glucose; pH 7.4. After 1 h incubation at the room temperature, the dye is washed away with the assay buffer (137 mM NaCl (standard assay) or 150 mM (HTS assay), 4 mM KCl (standard assay) or 3 mM (HTS assay), 2 mM CaCl2, 0.01 mM EDTA, 10 mM HEPES and 5 mM D-glucose; pH 7.4) In the FLIPR TETRA reader, various concentrations of the test compounds are added to the cells for 5 min while fluorescence is monitored to detect potential agonist activity. Next, co-agonists, glutamate and glycine are added for another 5 minutes. The concentration of glutamate corresponding to ˜EC40 (standard assay) or EC40 (HTS assay) is used to maximize the assay's signal window and ability to detect NMDA receptor antagonists and negative allosteric modulators. A saturating concentration (10 μM) of glycine is also present in the assay. A non-selective NMDA receptor antagonist, (+)MK-801 is used as a positive control for antagonist activity. The fluorescent signal in the presence of test compounds is quantified and normalized to the signal defined by the appropriate control wells.

A value given as a limit tells only on which side of the number the result lay.

Chain of human GluN1/GluN2B NMDA receptors (Q13224 27-1484, other chains not shown): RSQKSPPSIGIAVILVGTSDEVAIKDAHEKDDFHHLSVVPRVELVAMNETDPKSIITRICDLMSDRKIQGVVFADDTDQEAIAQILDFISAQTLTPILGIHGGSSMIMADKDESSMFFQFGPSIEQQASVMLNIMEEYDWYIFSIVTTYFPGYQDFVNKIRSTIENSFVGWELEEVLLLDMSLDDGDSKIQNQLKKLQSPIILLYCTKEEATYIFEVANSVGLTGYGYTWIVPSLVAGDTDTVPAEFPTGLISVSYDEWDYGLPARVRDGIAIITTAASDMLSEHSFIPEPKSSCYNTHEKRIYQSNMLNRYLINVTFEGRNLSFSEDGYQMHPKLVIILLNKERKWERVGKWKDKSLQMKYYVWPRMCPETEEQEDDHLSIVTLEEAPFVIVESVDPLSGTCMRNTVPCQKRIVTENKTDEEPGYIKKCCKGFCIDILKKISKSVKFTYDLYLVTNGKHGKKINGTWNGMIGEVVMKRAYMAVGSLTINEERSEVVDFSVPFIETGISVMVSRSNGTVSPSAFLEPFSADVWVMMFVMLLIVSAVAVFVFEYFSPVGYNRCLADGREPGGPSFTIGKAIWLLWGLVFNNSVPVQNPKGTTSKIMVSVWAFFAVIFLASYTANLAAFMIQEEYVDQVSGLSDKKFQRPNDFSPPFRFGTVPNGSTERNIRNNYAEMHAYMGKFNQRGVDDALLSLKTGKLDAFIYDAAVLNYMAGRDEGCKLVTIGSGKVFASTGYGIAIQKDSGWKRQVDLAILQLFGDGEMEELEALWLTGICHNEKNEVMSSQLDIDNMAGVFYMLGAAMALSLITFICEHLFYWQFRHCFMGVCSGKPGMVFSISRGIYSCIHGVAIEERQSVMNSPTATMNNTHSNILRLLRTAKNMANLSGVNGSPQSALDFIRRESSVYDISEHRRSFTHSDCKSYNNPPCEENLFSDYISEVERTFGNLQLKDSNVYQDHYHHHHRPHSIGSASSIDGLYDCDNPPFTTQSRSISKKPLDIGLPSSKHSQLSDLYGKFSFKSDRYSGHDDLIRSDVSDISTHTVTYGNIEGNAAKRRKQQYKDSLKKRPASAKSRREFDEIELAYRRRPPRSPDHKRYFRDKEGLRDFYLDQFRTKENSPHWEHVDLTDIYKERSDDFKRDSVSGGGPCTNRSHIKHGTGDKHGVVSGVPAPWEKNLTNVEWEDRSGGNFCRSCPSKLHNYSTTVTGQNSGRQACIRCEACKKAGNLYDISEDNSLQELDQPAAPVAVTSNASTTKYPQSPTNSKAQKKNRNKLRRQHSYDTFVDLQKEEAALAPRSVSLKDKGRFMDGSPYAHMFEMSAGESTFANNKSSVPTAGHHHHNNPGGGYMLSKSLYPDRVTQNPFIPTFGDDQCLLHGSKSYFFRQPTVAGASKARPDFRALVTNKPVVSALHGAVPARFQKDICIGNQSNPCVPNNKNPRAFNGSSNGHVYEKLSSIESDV

With `CC(F)(F)c1ncc(-c2ccc(F)c(C(F)F)c2)cc1CN1CCCOC1=O` [Example 136, 3-[[2-(1,1-Difluoroethyl)-5-[3-(difluoromethyl)-4-fluoro-phenyl]-3-pyridyl]methyl]-1,3-oxazinan-2-one], the IC50 was found to be 99 nM.

As for `O=C1OCc2ccccc2N1Cc1cncc(-c2ccc(F)c(OC(F)F)c2)c1` [Example 4, 1-[[5-[3-(Difluoromethoxy)-4-fluoro-phenyl]-3-pyridyl]methyl]-4H-3,1-benzoxazin-2-one], the IC50 amounted to 123 nM.

`O=C1OC2(CCOCC2)CN1Cc1cncc(-c2ccc(F)c(C(F)F)c2)c1` [Example 42, 2-[[5-[3-(Difluoromethyl)-4-fluoro-phenyl]-3-pyridyl]methyl]-4,8-dioxa-2-azaspiro[4.5]decan-3-one]: the IC50 is 108 nM.

Take `Cc1ncc(-c2ccc(F)c(OC(F)F)c2)cc1CN1C(=O)OCC1C` (single isomer, unassigned) [Example 82, (R*)-3-[[5-[3-(Difluoromethoxy)-4-fluoro-phenyl]-2-methyl-3-pyridyl]methyl]-4-methyl-oxazolidin-2-one]: the IC50 was 66 nM.

For `C[C@H]1COC(=O)N1Cc1cc(-c2ccc(F)c(C(F)F)c2)cnc1C(C)(F)F` [Example 142, (4S)-3-[[2-(1,1-Difluoroethyl)-5-[3-(difluoromethyl)-4-fluoro-phenyl]-3-pyridyl]methyl]-4-methyl-oxazolidin-2-one], the IC50 was determined as 2000 nM.

Turning to `Cc1ncc(-c2ccc(C(F)F)s2)cc1CN1CCOC1=O` [Example 100, 3-[[5-[5-(Difluoromethyl)-2-thienyl]-2-methyl-3-pyridyl]methyl]oxazolidin-2-one], the IC50 amounted to 42 nM.

As for `CC(C)C1CN(Cc2cncc(-c3ccc(F)c(C(F)F)c3)c2)C(=O)O1` (single isomer, unassigned) [Example 37, (S*)-3-[[5-[3-(Difluoromethyl)-4-fluoro-phenyl]-3-pyridyl]methyl]-5-isopropyl-oxazolidin-2-one], the half-inhibitory concentration (IC50) stood at 50 nM.

Turning to `Cc1ncc(-c2ccc(F)c(Cl)c2)cc1CN1CCCOC1=O` [Example 65, 3-[[5-(3-Chloro-4-fluoro-phenyl)-2-methyl-3-pyridyl]methyl]-1,3-oxazinan-2-one], the IC50 stood at 30 nM.

On to `CC1CN(Cc2cncc(-c3ccc(F)c(OC(F)F)c3)c2)C(=O)O1` (racemic) [Example 6, (R/S)-3-[[5-[3-(Difluoromethoxy)-4-fluoro-phenyl]-3-pyridyl]methyl]-5-methyl-oxazolidin-2-one], for which the IC50 stood at 15 nM.

With `O=C1OCCN1Cc1cncc(-c2cccc(C(F)(F)F)n2)c1` [Example 50, 3-[[5-[6-(Trifluoromethyl)-2-pyridyl]-3-pyridyl]methyl]oxazolidin-2-one], the IC50 was determined as 786 nM.

As for `COc1ncc(-c2cc(F)c(F)c(F)c2)cc1CN1CCOC1=O` [Example 102, 3-[[2-Methoxy-5-(3,4,5-trifluorophenyl)-3-pyridyl]methyl]oxazolidin-2-one], the IC50 turned out to be 172 nM.

For `COc1ncc(-c2ccc(F)c(C(F)F)c2)cc1CN1C(=O)OC[C@@H]1C` [Example 120, (4S)-3-[[5-[3-(Difluoromethyl)-4-fluoro-phenyl]-2-methoxy-3-pyridyl]methyl]-4-methyl-oxazolidin-2-one], the IC50 was 121 nM.

On to `O=C1OCCN1Cc1cncc(-c2ccc(F)c(OC(F)F)c2)c1` [Example 2, 3-[[5-[3-(Difluoromethoxy)-4-fluoro-phenyl]-3-pyridyl]methyl]oxazolidin-2-one], for which the IC50 was 12 nM.

As to `CC(C)C1CN(Cc2cncc(-c3ccc(F)c(OC(F)F)c3)c2)C(=O)O1` (single isomer, unassigned) [Example 16, (S*)-3-[[5-[3-(Difluoromethoxy)-4-fluoro-phenyl]-3-pyridyl]methyl]-5-isopropyl-oxazolidin-2-one], the IC50 was found to be 52 nM.

Regarding `COc1ncc(-c2cccc(C(C)(F)F)c2)cc1CN1CCOC1=O` [Example 111, 3-[[5-[3-(1,1-Difluoroethyl)phenyl]-2-methoxy-3-pyridyl]methyl]oxazolidin-2-one], the IC50 turned out to be 47 nM.

Take `CC(C)[C@@H]1COC(=O)N1Cc1cncc(-c2ccc(F)c(OC(F)F)c2)c1` [Example 11, (4R)-3-[[5-[3-(Difluoromethoxy)-4-fluoro-phenyl]-3-pyridyl]methyl]-4-isopropyl-oxazolidin-2-one]: the IC50 was greater than 3000 nM.

`Cc1ncc(-c2ccc(Cl)s2)cc1CN1CCOC1=O` [Example 98, 3-[[5-(5-Chloro-2-thienyl)-2-methyl-3-pyridyl]methyl]oxazolidin-2-one]: the IC50 worked out at 187 nM.

Take `COc1ncc(-c2cc(C)c(F)c(F)c2)cc1CN1CCOC1=O` [Example 112, 3-[[5-(3,4-Difluoro-5-methyl-phenyl)-2-methoxy-3-pyridyl]methyl] oxazolidin-2-one]: the concentration for half-maximal inhibition (IC50) came out at 18 nM.

Consider `O=C1OCCN1Cc1cncc(-c2ccc(OC(F)(F)F)c(F)c2)c1` [Example 48, 3-[[5-[3-Fluoro-4-(trifluoromethoxy)phenyl]-3-pyridyl]methyl]oxazolidin-2-one], for which the IC50 was determined as 912 nM.

As for `Cc1ncc(-c2ccc(F)c(OC(F)F)c2)cc1CN1CC(C)(C)OC1=O` [Example 87, 3-[[5-[3-(Difluoromethoxy)-4-fluoro-phenyl]-2-methyl-3-pyridyl]methyl]-5,5-dimethyl-oxazolidin-2-one], the IC50 was 373 nM.

As to `CC(F)(F)c1ncc(-c2ccc(F)c(OC(F)F)c2)cc1CN1CCCOC1=O` [Example 137, 3-[[2-(1,1-Difluoroethyl)-5-[3-(difluoromethoxy)-4-fluoro-phenyl]-3-pyridyl]methyl]-1,3-oxazinan-2-one], the half-maximal inhibitory concentration (IC50) was found to be 76 nM.

`Cc1cc(-c2cnc(C(F)F)c(CN3CCOC3=O)c2)ccc1F` [Example 128, 3-[[2-(Difluoromethyl)-5-(4-fluoro-3-methyl-phenyl)-3-pyridyl]methyl]oxazolidin-2-one]: the half-maximal inhibitory concentration (IC50) worked out at 204 nM.

Regarding `CC(F)(F)c1ncc(-c2ccc(F)c(C(F)F)c2)cc1CN1CC2(CCC2)OC1=O` [Example 138, 6-[[2-(1,1-Difluoroethyl)-5-[3-(difluoromethyl)-4-fluoro-phenyl]-3-pyridyl]methyl]-8-oxa-6-azaspiro[3.4]octan-7-one], the IC50 worked out at 549 nM.

`CC(F)(F)c1ncc(-c2ccc(F)c(C(F)F)c2)cc1CN1CCOC1=O` [Example 135, 3-[[2-(1,1-Difluoroethyl)-5-[3-(difluoromethyl)-4-fluoro-phenyl]-3-pyridyl]methyl]oxazolidin-2-one]: the IC50 came to 47 nM.

In the case of `Cc1cc(-c2cnc(C(F)F)c(CN3CCCOC3=O)c2)ccc1F` [Example 127, 3-[[2-(Difluoromethyl)-5-(4-fluoro-3-methyl-phenyl)-3-pyridyl]methyl]-1,3-oxazinan-2-one], the IC50 was found to be 276 nM.

Take `CC(F)(F)c1ncc(-c2ccc(F)c(C(F)F)c2)cc1CN1CC2(CC2)OC1=O` [Example 141, 5-[[2-(1,1-Difluoroethyl)-5-[3-(difluoromethyl)-4-fluoro-phenyl]-3-pyridyl]methyl]-7-oxa-5-azaspiro[2.4]heptan-6-one]: the IC50 was determined as 245 nM.

`O=C1OC2(CCOCC2)CN1Cc1cncc(-c2ccc(F)c(OC(F)F)c2)c1` [Example 20, 2-[[5-[3-(Difluoromethoxy)-4-fluoro-phenyl]-3-pyridyl]methyl]-4,8-dioxa-2-azaspiro[4.5]decan-3-one]: the IC50 turned out to be 267 nM.
